In brackets after ≈: the same amount, converted by molar mass.

By MIC50 is commonly meant an inhibitory concentration at the 50% level, which refers to growth in some studies and to a panel of isolates in others. The MIC80 is the lowest concentration that inhibits either 80% of growth or 80% of the strains tested, depending on the study. In general, MIC refers to the least concentration at which growth counts as inhibited. A word on the IC50: it is the concentration at which inhibition is half-maximal. The MIC90 is an inhibitory concentration at the 90% level, which refers to growth in some studies and to a panel of isolates in others.

Experiment [1] concerns Trichophyton rubrum. Nature of the experiment: Antifungal activity against Trichophyton rubrum 0501124 assessed as inhibition of fungal growth incubated for 24 hrs by broth microdilution method. The experiment is classed as functional. For orientation: In broth dilution the organism is exposed to a series of concentrations in liquid medium.
Another experiment concerns Nannizzia gypsea. Nature of the experiment: Antifungal activity against Microsporum gypseum assessed as fungal growth inhibition incubated for 48 hrs by microplate reader assay. The class given is functional.
Experiment [2] relates to Trichophyton rubrum. Briefly: Antifungal activity against Trichophyton rubrum assessed as fungal growth inhibition incubated for 5 to 7 days by NCCLS based assay. The class given is functional. Particulars: time 5-7 day.
The subject of experiment [3] is Candida albicans. Nature of the experiment: Antifungal activity against Candida albicans ATCC 10231 assessed as growth inhibition measured for 24 hrs by CLSI based method. The class given is functional.
For experiment [4], the system named is Candida albicans. Briefly: Antifungal activity against Candida albicans assessed as reduction in microbial growth. The experiment is classed as functional.
Experiment [5] has as its system Candida albicans. Briefly: Antifungal activity against Candida albicans ATCC 76615 assessed as fungal growth inhibition incubated for 5 to 7 days by NCCLS based assay. The class given is functional. Particulars: time 5-7 day.
The test system of another experiment is Nakaseomyces glabratus. Nature of the experiment: Antifungal activity against Candida glabrata ATCC 15126 assessed as reduction in fungal growth incubated for 24 hrs by CLSI based microdilution analysis. The experiment is classed as functional.
The subject of experiment [6] is Candida albicans. Briefly: Antifungal activity against Candida albicans SC5314 assessed as reduction in microbial growth incubated for 24 hrs by serial dilution method. The experiment is classed as functional.
The subject of experiment [7] is Candida albicans. Briefly: Antifungal activity against Candida albicans assessed as reduction in fungal growth incubated for 24 hrs by broth microdilution method. The class given is functional, organism-based.
The test system of experiment [8] is Candida albicans. Nature of the experiment: Antifungal activity against Candida albicans ATCC 96901. The class given is functional.
The next experiment relates to Aspergillus fumigatus. Nature of the experiment: Antifungal activity against Aspergillus fumigatus CGMCC3 7795 assessed as reduction in fungal growth incubated for 48 hrs by CLSI based microdilution analysis. The experiment is classed as functional.
The test system of a further experiment is Pichia kudriavzevii. Briefly: Antifungal activity against Candida krusei ATCC 6258 assessed as reduction in fungal growth by NCCLS method. The experiment is classed as functional.
A further experiment addresses Cytochrome P450 3A4 (Homo sapiens, UniProt P08684). Briefly: Inhibition of CYP3A4 (unknown origin). The experiment is classed as ADME.
In experiment [9] the test system is Candida albicans. Nature of the experiment: Antifungal activity against Candida albicans ATCC 10231 assessed as growth inhibition measured after 48 hrs by CLSI based method. The class given is functional, organism-based. The conditions noted are these: ATCC 10231, 48 h.
In experiment [10] the test system is Candida albicans. Briefly: Antifungal activity against Candida albicans SC5314 assessed as reduction in fungal growth incubated for 24 hrs by serial dilution method. The experiment is classed as functional.
The test system of another experiment is [Candida] auris. Briefly: Antifungal activity against Candida auris CBS 12373 assessed as reduction in microbial growth incubated for 24 hrs by serial dilution method. The experiment is classed as functional. Particulars: Candidozyma auris.
Experiment [11] has as its system Candida albicans. Nature of the experiment: Antimicrobial activity against Candida albicans 90028 assessed as microbial growth inhibition by broth microdilution method. The experiment is classed as functional.

Cytochrome P450 3A4, sequence (P08684 whole entry): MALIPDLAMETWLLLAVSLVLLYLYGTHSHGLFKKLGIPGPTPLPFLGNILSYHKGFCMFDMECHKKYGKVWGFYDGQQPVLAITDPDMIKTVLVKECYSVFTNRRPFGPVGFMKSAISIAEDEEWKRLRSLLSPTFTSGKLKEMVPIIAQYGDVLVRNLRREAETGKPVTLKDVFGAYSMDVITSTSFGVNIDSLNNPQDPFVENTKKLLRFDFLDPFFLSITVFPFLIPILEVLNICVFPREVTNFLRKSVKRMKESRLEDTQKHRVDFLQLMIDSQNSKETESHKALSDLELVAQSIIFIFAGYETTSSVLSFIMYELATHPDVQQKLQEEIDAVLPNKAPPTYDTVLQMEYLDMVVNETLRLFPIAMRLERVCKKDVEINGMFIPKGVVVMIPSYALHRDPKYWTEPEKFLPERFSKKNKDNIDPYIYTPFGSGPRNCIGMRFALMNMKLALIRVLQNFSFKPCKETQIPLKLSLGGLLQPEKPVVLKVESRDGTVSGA

For the compound `O=c1n(-c2ccc(C(F)(F)C(O)(Cn3cnnn3)c3ccc(F)cc3F)nc2)cnn1C1CCCCC1` (centres undefined), the MIC50 in the experiment on Trichophyton rubrum [1] is 2 mg/L (≈ 3.86 µM). Also, the MIC80 is 4 mg/L (≈ 7.71 µM) in the experiment on Nannizzia gypsea and 2 mg/L (≈ 3.86 µM) with Trichophyton rubrum [2]. For the compound `Fc1ccc([Se]C(Cn2ccnc2)c2ccc(F)cc2F)cc1` (centres undefined), the MIC with Candida albicans [3] is 0.02 mg/L (≈ 0.0525 µM). On to `Clc1ccc(C(Cn2ccnc2)[Se]C(Cn2ccnc2)c2ccc(Cl)cc2)cc1` (centres undefined), for which, in the experiment with Candida albicans [4], the MIC came to 2 mg/L.

On to `O=C(N[C@@H](Cn1ccnc1)C(=O)NCc1ccccc1)c1ccc2ccccc2c1`, for which, in the experiment on Candida albicans [5], the MIC amounted to 0.25 mg/L (≈ 0.627 µM). For the compound `O=C(O)c1cc(O)c(O)c(O)c1` [GALLIC ACID], the MIC in the experiment with Nakaseomyces glabratus worked out at 12.5 mg/L (≈ 73.5 µM). On to `Cc1ccccc1[Se]C(Cn1ccnc1)c1ccc(Cl)cc1` (centres undefined), for which the MIC in the experiment with Candida albicans [3] came out at 0.03 mg/L (≈ 0.0798 µM). Turning to `O=C(CNC(=O)c1ccc2ccccc2n1)NCc1ccncc1`, in the experiment with Candida albicans [5], the MIC stood at 0.125 mg/L (≈ 0.39 µM). As for `O[C@@](Cn1cnnn1)(c1ccc(F)cc1F)C(F)(F)c1ccc(-c2ccc(OC(F)(F)F)cc2)cn1`, the MIC50 with Candida albicans [6] is no more than 0.001 mg/L. On to `O=c1n(-c2ccc(C(F)(F)C(O)(Cn3cnnn3)c3ccc(F)cc3F)nc2)cnn1C1CCCC1` (centres undefined), for which the MIC80 in the experiment on Trichophyton rubrum [2] amounted to 0.125 mg/L (≈ 0.248 µM).

Consider `CCC/C=C/C=C/C=C(\C)[C@@H]1OC[C@H](C)[C@H](OC)[C@H]1OC(=O)CN`, for which the IC50 in the experiment on Candida albicans [7] stood at 0.47 µM.

Regarding `Clc1ccc(C(Cn2ccnc2)[Se][Se]C(Cn2ccnc2)c2ccc(Cl)cc2Cl)c(Cl)c1` (centres undefined), in the experiment with Candida albicans [8], it took 0.25 mg/L (≈ 0.392 µM) to inhibit growth (MIC). As for `OC(Cn1cnnn1)(c1ccc(F)cc1F)C(F)(F)c1ccc(C#Cc2ccc(F)cc2)cn1` (centres undefined), the MIC50 in the experiment on Trichophyton rubrum [1] was greater than 64 mg/L. Take `Cc1cccc(C)c1[Se]C(Cn1ccnc1)c1ccc(F)cc1` (centres undefined): in the experiment on Candida albicans [3], the MIC is 0.03 mg/L (≈ 0.0804 µM). For `CC(C)[C@H](NC(=O)c1ccc2c(c1)OCCO2)C(=O)NCc1cccnc1`, in the experiment with Candida albicans [5], the MIC is 0.125 mg/L (≈ 0.338 µM).

Take `C[C@H](NC(=O)c1ccc2ccccc2n1)C(=O)NCc1ccncc1`: in the experiment on Candida albicans [5], the MIC came out at 0.125 mg/L (≈ 0.374 µM). As to `N#Cc1ccc(COc2ccc(C#Cc3ccc(C(F)(F)[C@](O)(Cn4cnnn4)c4ccc(F)cc4F)nc3)cc2)cc1` [VT-1598], the MIC50 is 0.25 mg/L (≈ 0.428 µM) in the experiment on Aspergillus fumigatus and 0.007 mg/L in the experiment with Candida albicans [4]. On to `CC(C)(C)Cn1ncn(-c2ccc(C(F)(F)C(O)(Cn3cnnn3)c3ccc(F)cc3F)nc2)c1=O` (centres undefined), for which the MIC50 in the experiment with Trichophyton rubrum [1] is 2 mg/L (≈ 3.95 µM). The MIC80 is 4 mg/L (≈ 7.9 µM) in the experiment on Nannizzia gypsea and 2 mg/L (≈ 3.95 µM) in the experiment on Trichophyton rubrum [2]. With `CC(C)Cc1ccc([C@H](C)C(=O)NC[C@](O)(Cn2cncn2)c2ccc(F)cc2F)cc1`, the MIC80 with Pichia kudriavzevii was 0.003 mg/L (≈ 0.00678 µM). Turning to `C[C@H](NC(=O)c1ccc2c(c1)OCCO2)C(=O)NCc1ccncc1`, the MIC in the experiment on Candida albicans [5] was 0.125 mg/L (≈ 0.366 µM). As for `Clc1ccc(C(Cn2ccnc2)[Se]Cc2ccccc2Cl)c(Cl)c1` (centres undefined), in the experiment with Candida albicans [3], the MIC was found to be 0.01 mg/L (≈ 0.0225 µM). As for `N#Cc1ccc(COc2ccc(C#Cc3ccc(C(F)(F)C(O)(Cn4cnnn4)c4ccc(F)cc4F)nc3)cc2)cc1` (centres undefined), the figures for the MIC50 with Trichophyton rubrum [1] and in the experiment on Candida albicans [4] were 8 mg/L (≈ 13.7 µM) and 0.031 mg/L, respectively. Regarding `CC(C)(C)c1ccc(-c2nnc(Nc3ccc(Cl)cc3)o2)cc1`, the IC50 against Cytochrome P450 3A4 was 30.5 µM; in the experiment on Candida albicans [9], 0.9 mg/L (≈ 2.75 µM). In addition, the MIC50 in the experiment with Candida albicans [10] worked out at 0.5 mg/L (≈ 1.53 µM); in experiment [Candida] auris, 0.8 mg/L.

Regarding `C[C@H](C(=O)NC[C@](O)(Cn1cncn1)c1ccc(F)cc1F)c1ccc(-c2ccccc2)c(F)c1`, the MIC80 in the experiment on Pichia kudriavzevii amounted to 0.007 mg/L (≈ 0.0146 µM). On to `Cc1cccc(C)c1[Se]C(Cn1ccnc1)c1ccc(Cl)cc1` (centres undefined), for which the MIC in the experiment on Candida albicans [4] was determined as 0.03 mg/L. Consider `CC(C)[C@@H](C)/C=C/[C@@H](C)[C@H]1CC[C@H]2C3=CC=C4C[C@@H](O)CC[C@]4(C)[C@H]3CC[C@]12C` [ERGOSTEROL], for which the MIC90 with Candida albicans [11] stood at 512 mg/L (≈ 1290 µM).

Source of the values: ChEMBL document CHEMBL5518157, “Strategies of targeting CYP51 for IFIs therapy: Emerging prospects, opportunities and challenges” (Eur J Med Chem, 2023).
